Earlier results as cited in patent US8778892B2, “Compounds and methods for treatment of solid tumors” (B & G Partners, LLC, priority 2008, dated 2014).

Target: CD44 (Homo sapiens, UniProt P16070)
Conditions: intact cells

Chain of CD44 (P16070 21-742, species assumed): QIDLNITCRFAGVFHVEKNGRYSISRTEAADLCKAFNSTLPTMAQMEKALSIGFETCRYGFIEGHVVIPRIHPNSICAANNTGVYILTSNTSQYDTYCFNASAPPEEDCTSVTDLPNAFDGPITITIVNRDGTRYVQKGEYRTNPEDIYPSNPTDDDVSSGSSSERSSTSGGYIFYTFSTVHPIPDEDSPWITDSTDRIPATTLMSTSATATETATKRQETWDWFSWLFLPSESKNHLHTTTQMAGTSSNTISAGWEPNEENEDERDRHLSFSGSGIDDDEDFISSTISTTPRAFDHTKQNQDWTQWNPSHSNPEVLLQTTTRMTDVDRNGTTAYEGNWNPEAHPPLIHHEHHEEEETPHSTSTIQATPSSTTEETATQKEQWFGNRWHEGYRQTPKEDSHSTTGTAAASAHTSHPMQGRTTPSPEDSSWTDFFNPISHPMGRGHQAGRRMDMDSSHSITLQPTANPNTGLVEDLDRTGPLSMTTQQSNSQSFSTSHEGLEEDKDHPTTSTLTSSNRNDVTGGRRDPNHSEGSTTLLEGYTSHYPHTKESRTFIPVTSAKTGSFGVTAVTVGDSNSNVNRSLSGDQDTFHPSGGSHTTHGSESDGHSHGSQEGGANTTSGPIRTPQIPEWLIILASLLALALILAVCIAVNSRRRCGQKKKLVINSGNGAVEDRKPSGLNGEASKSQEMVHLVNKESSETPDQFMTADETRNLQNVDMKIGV

Substance | capacity to compete with hyaluronan for binding
chondroitin sulfate | little capacity to compete
heparan sulfate | little capacity to compete
